The values below are quoted from earlier work in PMC9686516, “Pharmacokinetic Characteristics of Nebulized Colistimethate Sodium Using Two Different Types of Nebulizers in Critically Ill Patients with Ventilator-Associated Respiratory Infections” (Antibiotics, 2022).

Where a SMILES comes first, the peptide text is derived from it. Bridges are numbered along the chain shown (N, C = ends). [ ]: non-standard residue; d: D form. The star is where a group is joined. X1 = CC[C@H](C)CCCCC(=O)*; Dab = NCC[C@H](N)C(=O)O

The conditions of series [1]: cited from earlier work. The method, then:
However, the ELF exposure was similar, despite the higher dose, probably due to a higher clearance from the lung compartment in our study, as evidenced by the ... || Contrarily, our results were only marginally compatible with the results of Boisson et al. and Gkoufa et al.. In the former study, the range of colistin concentration in the ELF following a 2 mIU inhalation spanned from 9.53 to 1137 mg/L [14], while it was between 0.8 mg/L and 57.9 mg/L in the present study. In the latter study, the exact values were not reported, however in the figured data it was shown that after an inhalation of 3 to 5 mIU of CMS, formed colistin concentrations were in the range of 10^2 to 10^3 mg/L [16]. Again, it is not known whether these differences we ...

For series [2] the following is noted: cited from earlier work. The method, then: The median (IQR) values of colistin concentration in plasma (Ccolistin, plasma) using VMN nebulization were 0.6 (0.4–0.7) mg/L, 2.3 (1.4–2.7) mg/L, 1.7 (1.1–2.0) mg/L, 0.8 (0.7–0.9) mg/L, 0.4 (0.3–0.6) mg/L, and 0.2 (0.2–0.4) mg/L, at 0.5, 1, 2, 4, 6 and 8 h post-nebulization. The corresponding values with JN were 0.1 (0.1–0.1) mg/L, 0.1 (0.1–0.2) mg/L, 0.3 (0.3–0.4) mg/L, 0.2 (0.2–0.2) mg/L, 0.1 (0.1–0.1) mg/L, and 0.1 (0.1–0.1) mg/L (Figure 3). Median Ccolistin, plasma was greater than 2 mg/L at 1 h post-nebulization, a value which is the average concentration, in steady-state conditions, th ... || Contrarily, our results were only marginally compatible with the results of Boisson et al. and Gkoufa et al.. In the former study, the range of colistin concentration in the ELF following a 2 mIU inhalation spanned from 9.53 to 1137 mg/L [14], while it was between 0.8 mg/L and 57.9 mg/L in the present study. In the latter study, the exact values were not reported, however in the figured data it was shown that after an inhalation of 3 to 5 mIU of CMS, formed colistin concentrations were in the range of 10^2 to 10^3 mg/L [16]. Again, it is not known whether these differences we ...
This is another data set of the same source.

With `CC[C@H](C)CCCCC(=O)N[C@@H](CCN)C(=O)N[C@H](C(=O)N[C@@H](CCN)C(=O)N[C@H]1CCNC(=O)[C@H]([C@@H](C)O)NC(=O)[C@H](CCN)NC(=O)[C@H](CCN)NC(=O)[C@H](CC(C)C)NC(=O)[C@@H](CC(C)C)NC(=O)[C@H](CCN)NC1=O)[C@@H](C)O` [colistin] (X1-[Dab]T[Dab][Dab][Dab][dL]L[Dab][Dab]T; lactam 4-C), in series [1] (1 mIU of CMS via VMN, ref 13 (Athanassa et al.)), the “median plasma Cmax” value was 1600 ng/mL. Also, the plasma concentrations entry in series [1] (after inhaled CMS, generally) is “below 1 mg/L”. In series [2], the “average plasma concentration, in steady-state conditions, that predicts acute renal failure” value is listed as 2 mg/L and the “formed colistin plasma values linked to the occurrence of nephrotoxicity” value is 2 to 2.5 mg/L.
